Results published in article PMC6298966, “HAI Peptide and Backbone Analogs—Validation and Enhancement of Biostability and Bioactivity of BBB Shuttles” (Scientific Reports, 2018).
Read-outs that look alike come from different tables or passages of the source. Residues, ends and D or L forms follow the SMILES beside them.

How the values were obtained:
[1] = in vitro; details: bovine
Procedure: (§2) In these models, two compartments are separated by a membrane containing a monolayer of endothelial cells which mimics either the intestinal barrier or the BBB. One compartment contains the peptide, which is incubated for 2 h. The amount of peptide in each compartment is then analyzed to determine apparent permeability (Papp, in cm/s) and transport (T, in %). The integrity of the compound in the acceptor compartment is assessed by mass spectrometry (MS).
(§3) This assay was an adapted model[10] of the method previously published by Gaillard and de Boer[52]. Briefly, TEER was measured in all transwells (TEER > 100 Ω·cm^2), before performing the assay. […] The apical compartment was filled with 200 μL of the solution containing the peptide, and 800 µL of Ringer-HEPES was poured into the basal well. Three replicates of each peptide were assayed. The plate was left for 2 h in the incubator at 37 °C. Finally, the samples were collected and analyzed or frozen until analysis. LY fluorescence was measured in a 96-well plate with a Fluoroskan Ascent Microplate Fluorometer (Thermo Fisher Scientific).
(§4) In vitro Transport of AuNPs in using a Bovine BBB Cell-Based Model Assay. To assess the
(§5) capacity of HAI to cross the BBB, this peptide was conjugated to AuNPs and then assay ed in an in
vitro BBB cell-based model.

[2] = tested on: Caco-2 cells
Procedure: (§6) In a subsequent step we evaluated the transport capacity of these peptides using two in vitro barrier models, namely in an intestine (Caco-2 assay)[41] and a BBB model[39],[40] […] In these models, two compartments are separated by a membrane containing a monolayer of endothelial cells which mimics either the intestinal barrier or the BBB. One compartment contains the peptide, which is incubated for 2 h. The amount of peptide in each compartment is then analyzed to determine apparent permeability (Papp, in cm/s) and transport (T, in %). The integrity of the compound in the acceptor compartment is assessed by mass spectrometry (MS).
(§7) The ability of peptides to overcome the intestinal barrier was tested using Caco-2 cells. […] Briefly, experiments were done with cells (passage between 60 and 80) seeded on 4.67 cm^2 filters at a density of 5.25·10^4 cell/cm^2. Peptides dissolved in HBSS were incubated for 2 h at a 50 μM concentration with cell layers at 37 °C and 5% CO2. After the experiment, the content of each compartment was directly analyzed by HPLC and then transport (in %) and Papp were determined.

[3] = tested on: in vitro bovine BBB model
Procedure: as §2, §3, §4, §5
vitro BBB cell-based model.

[4] = tested on: Caco-2 cells; assay: Caco-2 intestinal barrier model assay; details: for Caco-2 T (%): Table 1; for Caco-2 T (%) / Caco-2 transport: 2 h at 37 °C, HBSS, 50 μM, RP-HPLC; for Detection by MALDI-TOF MS in acceptor wells: Caco-2 assay, after 2 h; for Caco-2 transport: Table 2
Procedure: as §6, §7

[5] = In vitro bovine BBB cell-based model assay; details: BBB Papp, 200 μM, RP-HPLC; for Papp at 2 h, 200 μM: bovine
Procedure: as §2, §3, §4, §5
vitro BBB cell-based model.

[6] = tested on: in vitro bovine BBB model; assay: In vitro bovine BBB cell-based model assay; details: for BBB T (%): 200 μM, RP-HPLC
Procedure: as §2, §3, §4, §5
vitro BBB cell-based model.

[7] = tested on: rat astrocytes; assay: MTT toxicity assay in rat astrocytes; format: cell-based; details: 50 μM, 24 h
Procedure: (§1) The assay was performed in 96-well plates, adding 3,150 cells to each well in 100 μL (immortalized cell line –i.e. BBECs) or 7,000 cells in 100 μL (primary cultures –i.e. rat astrocytes), seeded 24 h before performing the experiment. Cells were incubated with each peptide at a range of concentrations (20, 50 and 500 μM) in cellular medium for 24 h at 37 °C and 5% CO2. After 22 h, MTT (3-(4,5-dimethylthiazol-2-yl)−2,5-diphenyltetrazolium bromide) was added to a final concentration of 0.5 mg/mL. The cells with peptides and MTT were incubated for further 2 h. The medium was then discarded and 200 μL of 2-propanol was added to each well to dissolve the purple formazan, product of the conversion of MTT by the mitochondrial enzyme […]. The plate was kept in an orbital shaker for 30 min (15 rpm) to ensure the complete dissolution of formazan. Finally, absorbance was measured at 570 nm and cell viability percentages were calculated dividing the absorbance value of cells treated with a given peptide by the absorbance value of untreated cells. Experiments for each peptide were carried out by triplicate. Cells incubated with 1% SDS were used as control of 0% viability (value subtracted to all samples before viability calculus per each peptide).

[8] = Peptide stability in human serum; format: in vitro ADME; details: male, human serum diluted with HBSS, 24 h, RP-HPLC; for half-life: human serum
Procedure: Nevertheless, peptides formed by L-amino acids have a short in vivo half-life in serum, which can reduce their potential bioactivity. The sensitivity of this peptide to proteases was tested at a concentration of 150 μM in HBSS/human serum 90:10 (v/v) for 24 h. At several time points, an aliquot was extracted, precipitated serum proteins with MeOH and then analyzed by RP-HPLC.
Peptides were dissolved in 1 mL of HBSS buffer/human serum (from human male AB plasma; Sigma-Aldrich) 10:90 (v/v) at a final concentration of 200 µM and incubated at 37 °C for 24 h. Aliquots of 50 µL were extracted at a range of incubation times and treated with 200 µL of cold CH3OH (4 °C) to precipitate serum proteins. After 30 min, samples were centrifuged at 13,000 g and 4 °C for 30 min. Supernatants were analyzed by RP-HPLC-PDA and MALDI-TOF MS, using similar procedures as for the quantification of the in vitro cell-based BBB model.

[9] = tested on: rat astrocytes; assay: Internalization of Cf-labeled peptides by rat astrocytes (CLSM, flow cytometry); format: cell-based; details: for Internalization profile among candidates: Cf-labeled peptides 50 μM (R8 15 μM); for Internalization profile among candidates / Internalization with respect to the parent version (HAI): 3 h, 37 °C; for Internalization with respect to the parent version (HAI): 50 μM
[10] = Caco-2 intestinal barrier model assay; details: human, Caco-2
Procedure: as §6, §7

[11] = tested on: bovine brain endothelial cells (BBECs); assay: Internalization of Cf-labeled peptides by BBECs (CLSM, flow cytometry); format: cell-based; details: for Internalization profile among candidates: Cf-labeled peptides 50 μM (R8 15 μM); for Internalization profile among candidates / Internalization with respect to the parent version (HAI): 3 h, 37 °C; for Internalization with respect to the parent version (HAI): 50 μM
[12] = tested on: bovine brain endothelial cells (BBECs); assay: MTT toxicity assay in BBECs; format: cell-based; details: 50 μM, 24 h
Procedure: as §1

[13] = tested on: in vitro human BBB model; assay: In vitro human BBB cell-based model assay; format: in vitro ADME; details: 50, 250 and 1250 μM
Procedure: The discrepancy between internalization and transport of (NMe)HAI is probably due to an increase in lipophilicity after methylation of the backbone, thereby enhancing internalization by passive diffusion but not favoring the transcytosis. To ensure that rD-HAI crosses the BBB through active transport, we proceeded to test its mechanism of transport using a human model of the BBB.
This assay was performed using the model published by Cecchelli and co-workers[53]. Endothelial cells and pericytes were defrosted in gelatin-coated Petri dishes (Corning). Pericytes and endothelial cells were cultured in DMEM pH 6.8 or in supplemented endothelial cell growth medium (Sciencells), respectively. After 48 h, pericytes (50,000 cells/well) and endothelial cells (80,000 cells/well) were seeded in gelatin-coated 12-well plates or in Matrigel-coated 12-well Transwell inserts (Corning), respectively. Medium was changed every 2–3 days and assays were performed 7–8 days after seeding. […] […] Then, 500 µL of the compound and 1,500 µL of Ringer-HEPES alone were introduced in the apical or in the basolateral compartments, respectively. The plates were set on at 37 °C for 2 h. The solutions from both compartments were then recovered and quantified by HPLC and identified by MALDI-TOF.

Compound: CC[C@H](C)[C@H](NC(=O)[C@H](CC(=O)O)NC(=O)[C@H](CS)NC(=O)[C@@H]1CCCN1C(=O)[C@@H](NC(=O)CNC(=O)[C@@H]1CCCN1C(=O)[C@H](CCCNC(=N)N)NC(=O)[C@@H]1CCCN1C(=O)[C@H](CC(N)=O)NC(=O)[C@H](CCC(=O)O)NC(=O)[C@@H]1CCCN1C(=O)[C@H](CCSC)NC(=O)[C@H](Cc1c[nH]c2ccccc12)NC(=O)[C@@H](NC(=O)[C@@H](NC(=O)[C@@H](N)Cc1ccc(O)cc1)[C@@H](C)O)[C@@H](C)CC)[C@@H](C)O)C(=O)N[C@@H](Cc1ccccc1)C(=O)N[C@H](C(=O)N[C@@H](CC(N)=O)C(=O)N[C@@H](CO)C(=O)N[C@@H](CCCNC(=N)N)C(=O)NCC(=O)N[C@@H](CCCCN)C(=O)N[C@@H](CCCNC(=N)N)C(=O)N[C@@H](C)C(=O)N[C@@H](CO)C(=O)N[C@@H](CC(N)=O)C(=O)NCC(=O)O)[C@@H](C)O [RVG]
- Papp [1]: 0.28 ± 0.02 ×10⁻⁶ cm/s
- Caco-2 Papp [2]: 0 ×10⁻⁶ cm/s
- Caco-2 T (%) [2]: 0%
- BBB T (%) [3]: 0.29 ± 0.03%

Compound: CC(C)C[C@H](NC(=O)[C@@H](N)C(C)C)C(=O)N[C@@H](CCCNC(=N)N)C(=O)N1CCC[C@H]1C(=O)N1CCC[C@H]1C(=O)N1CCC[C@H]1C(=O)N[C@H](C(=O)N[C@@H](CC(C)C)C(=O)N[C@@H](CCCNC(=N)N)C(=O)N1CCC[C@H]1C(=O)N1CCC[C@H]1C(=O)N1CCC[C@H]1C(=O)N[C@H](C(=O)N[C@@H](CC(C)C)C(=O)N[C@@H](CCCNC(=N)N)C(=O)N1CCC[C@H]1C(=O)N1CCC[C@H]1C(=O)N1CCC[C@H]1C(=O)O)C(C)C)C(C)C [SAP, H-(VLRPPP)3-OH] (H-VLRPPPVLRPPPVLRPPP-OH)
- Caco-2 T (%) [4]: 0%
- Papp at 2 h, 200 μM ([5]; Table 1, 2 h at 37 °C): 5.5 ± 1.5 ×10⁻⁶ cm/s
- BBB T (%) ([6]; Table 1, 2 h at 37 °C): 5 ± 3%

Compound: CC[C@H](C)[C@H](NC(=O)[C@H](C)NC(=O)[C@@H](N)Cc1c[nH]cn1)C(=O)N[C@@H](Cc1ccc(O)cc1)C(=O)N1CCC[C@H]1C(=O)N[C@@H](CCCNC(=N)N)C(=O)N[C@@H](Cc1c[nH]cn1)C(N)=O [HAI, H-HAIYPRH-NH2]
- Toxicity (MTT assay) [7]: not toxic
- half-life at 150 μM ([8]; 150 μM in HBSS/human serum 90:10 (v/v)): ~5 min
- Internalization in presence of transferrin (Tf) ([9]; Cf-HAI 50 μM, flow cytometry): promoted by the addition of Tf
- Papp at 2 h, 50 μM [10]: 0.0002 ± 8e-05 ×10⁻⁶ cm/s
- Detection by MALDI-TOF MS in acceptor wells [4]: detected
- Caco-2 T (%) [4]: 0.7 ± 0.3%
- Caco-2 transport [4]: 0.7 ± 0.3
- Papp at 2 h, 200 μM ([5]; Table 1, 2 h at 37 °C): 18 ± 2 ×10⁻⁶ cm/s
- Papp at 2 h, 200 μM ([5]; Table 2, 2 h at 37 °C): 9 ± 5 ×10⁻⁶ cm/s
- BBB T (%) ([6]; Table 1, 2 h at 37 °C): 16 ± 3%
- BBB T (%) ([6]; Table 2, 2 h at 37 °C): 10 ± 3%
- Internalization in presence of transferrin (Tf) ([11]; Cf-HAI 50 μM, flow cytometry): promoted by the addition of Tf
- Internalization at increasing concentrations of peptide ([11]; range of concentrations of Cf-HAI): saturation of internalization
- Toxicity (MTT assay) [12]: not toxic

Compound: N=C(N)NCCC[C@H](NC(=O)[C@H](CCCNC(=N)N)NC(=O)[C@H](CCCNC(=N)N)NC(=O)[C@H](CCCNC(=N)N)NC(=O)[C@H](CCCNC(=N)N)NC(=O)[C@H](CCCNC(=N)N)NC(=O)[C@H](CCCNC(=N)N)NC(=O)[C@@H](N)CCCNC(=N)N)C(=O)O [Peptide R8]
- Internalization profile among candidates [9]: highest internalization profiles
- Detection by MALDI-TOF MS in acceptor wells [4]: detected
- Caco-2 T (%) [4]: 0%
- Papp ([5]; Table 1, 2 h at 37 °C): 0.6 ± 0.06 ×10⁻⁶ cm/s
- BBB T (%) ([6]; Table 1, 2 h at 37 °C): 0.68 ± 0.07%
- Internalization profile among candidates [11]: highest internalization profiles

Compound: CC[C@@H](C)[C@@H](NC(=O)[C@@H](Cc1ccc(O)cc1)NC(=O)[C@H]1CCCN1C(=O)[C@@H](CCCNC(=N)N)NC(=O)[C@H](N)Cc1c[nH]cn1)C(=O)N[C@H](C)C(=O)N[C@H](Cc1c[nH]cn1)C(N)=O [rD-HAI, H-hrpyiah-NH2]
- half-life [8]: > 24 h
- Internalization with respect to the parent version (HAI) [9]: maintained the internalization rate
- Papp at 2 h, 50 μM [10]: 0.00012 ± 0.0001 ×10⁻⁶ cm/s
- Caco-2 transport [4]: 0.4 ± 0.3
- Papp at 2 h, 200 μM ([5]; Table 2, 2 h at 37 °C): 14 ± 2 ×10⁻⁶ cm/s
- BBB T (%) ([6]; Table 2, 2 h at 37 °C): 17 ± 3%
- BBB transport rate relative to the parent version ([6]; vs HAI): around 1.5 times
- Internalization with respect to the parent version (HAI) [11]: maintained the internalization rate
- Transport at increasing concentrations [13]: saturation of transport

Compound: CC[C@H](C)[C@@H](C(=O)N(C)[C@@H](Cc1ccc(O)cc1)C(=O)N1CCC[C@H]1C(=O)N[C@@H](CCCNC(=N)N)C(=O)N(C)[C@@H](Cc1c[nH]cn1)C(N)=O)N(C)C(=O)[C@H](C)NC(=O)[C@@H](N)Cc1c[nH]cn1 [(NMe)HAI, H-HA(NMe)I(NMe)YPR(NMe)H-NH2]
- half-life [8]: > 24 h
- Internalization with respect to the parent version (HAI) [9]: two-fold increase in internalization
- Caco-2 transport [4]: 0.200 ± 0.003
- Papp at 2 h, 200 μM ([5]; Table 2, 2 h at 37 °C): 11.7 ± 1.3 ×10⁻⁶ cm/s
- BBB T (%) ([6]; Table 2, 2 h at 37 °C): 13.9 ± 1.6%
- Internalization with respect to the parent version (HAI) [11]: two-fold increase in internalization

Compound: Penetratin
- Internalization profile among candidates [9]: highest internalization profiles
- Internalization profile among candidates [11]: highest internalization profiles

Compound: TAT: HIV TAT 48–57 peptide, derived from the transcriptional trans-activator protein of HIV-1; cell-penetrating peptide (GRKKRRQRRR; UniProt P04608 48-57, looked up, fragment)
- Internalization profile among candidates [9]: highest internalization profiles
- Caco-2 T (%) [4]: 0%
- BBB T (%) ([6]; Table 1, 2 h at 37 °C): 0%
- Detection by MALDI-TOF MS in acceptor wells ([6]; after 2 h): not detected
- Internalization profile among candidates [11]: highest internalization profiles
